The values below come from the OPERA property sets (Mansouri et al. 2018).

The logP is a log measure of how a compound divides between an organic and an aqueous phase. Read a low logP as a more hydrophilic compound. `O=C1C2CC3C(C2)C13` came in with a logP of 0.81.

On to `OC1CC2C=CC1C2` (stereo unspecified), for which the logP amounted to 0.99.

For `C1CC2CC1C1OC21` (stereo unspecified), the logP amounted to 1.58.

The compound `BrC1C2CC3C(C2)C13` (stereo unspecified) showed a logP of 3.11.

As to `OC1CC2CCC1C2O` (stereo unspecified), the logP stood at 0.4.

`BrC1CC2CCC1C2` (stereo unspecified) had a logP of 3.54.

`ClC1CC2CCC1C2` (stereo unspecified) had a logP of 3.35. The logP values of the last two compounds are within 0.2 log units of each other.

Turning to `C1=CC2CCC1C2`, the logP was 3.24.

In turn, `C1=CC2C=CC1C2` gave a logP of 2.67.

In the case of `OCC1CC2CCC1C2` (stereo unspecified), the logP came to 1.99.

`OC(C1CC1)C1CC1`: the logP was 1.07.

Turning to `OC1CC2CCC1C2` (stereo unspecified), the logP worked out at 1.45.

Take `OC1C2CC3C1C3C2O` (stereo unspecified): the logP is -0.42.

Turning to `C1CC2CCC1C2`, the logP was determined as 3.78.

Consider `C1C2C3C2C2C1C32` (stereo unspecified), for which the logP is 2.9.

With `OC1C2CCC(C2)C1O` (stereo unspecified), the logP stood at 0.4.
